# In article PMC6009966, “A novel proton transfer salt of 2-amino-6-sulfamoylbenzothiazole and its metal complexes: the evaluation of their inhibition effects on human cytosolic carbonic anhydrases” (Journal of Enzyme Inhibition and Medicinal Chemistry, 2017):
# Columns and labels:
# Format in all cases: biochemical
# hCA I [1] = target: T1, hCA I (Homo sapiens, UniProt P00915); experiment: CO2 hydratase activity inhibition of hCA I (pH-stat method)
# Description: (§1) Erythrocytes were purified from human blood. The blood samples were centrifuged at 1500 rpm for 20 min, and plasma was removed. Later, red cells were washed with isotonic solution (0.9% NaCl), and the erythrocytes were hemolyzed with 1.5 volumes of ice-cold water. Cell membranes were removed by centrifugation at 4 °C, 20000 rpm for 30 min. The pH of hemolysate was adjusted to 8.7 with solid TRIS (tris(hydroxymethyl)aminomethane). […] After extensive washing with a solution of 25.0 mM TRIS-HCl/22.0 mM Na2SO4 (pH 8.7), the hCA I and hCA II isoenzymes were eluted with the solution of 1.0 M NaCl/25.0 mM Na2HPO4 (pH 6.3) and 0.1 M NaCH3COO/0.5 M NaClO4 (pH 5.6), respectively. For quantitative protein determination, the Bradford method was used with bovine serum albumin as standard. Also, the purity control of the isoenzymes was performed with SDS-PAGE after the purification.
# (§2) The enzyme unit (EU) is the enzyme amount that reduces the non-enzymatic reaction time by 50%. The activity of an enzyme unit was calculated by using the equation ((t0−tc)/tc), where t0 and tc are times for pH change of the non-enzymatic and enzymatic reactions, respectively.
# (§3) Regression analysis graphs were drawn by plotting the percent enzyme activity versus inhibitor concentration and IC50 values were calculated.
# hCA II [2] = target: T2, hCA II (Homo sapiens, UniProt P00918); experiment: Esterase activity inhibition of hCA II (4-nitrophenylacetate, 348 nm)
# Description: as §1
# (§4) The enzymatic reaction, in a total volume of 3.0 mL, contained 1.4 mL of 0.05 M TRIS–SO4 buffer (pH 7.4), 1.0 mL of 3.0 mM 4-nitrophenylacetate, 0.5 mL H2O, and 0.1 mL enzyme solution. A reference measurement was obtained by preparing the same cuvette without enzyme solution.
# as §3
# (§5) Enzyme activity was also measured in the presence of the same substrate concentrations but in the absence of any inhibitor to determine the Vmax (Supplementary Figure S3).
# hCA I [3] = target: T1, hCA I; experiment: Esterase activity inhibition of hCA I (4-nitrophenylacetate, 348 nm)
# Description: as §1, §4, §3, §5
# hCA II [4] = target: T2, hCA II; experiment: CO2 hydratase activity inhibition of hCA II (pH-stat method)
# Description: as §1, §2, §3
# [5] = CO2 hydratase activity, 0 °C, veronal buffer pH 8.15, mean ± standard error, three assays
# [6] = 4-nitrophenylacetate, 25 °C, TRIS-SO4 pH 7.4, mean ± standard error, three assays
# [7] = determined by esterase activity measurements, Lineweaver-Burk plot, mean ± standard error, three assays
# T1 sequence (P00915 whole entry): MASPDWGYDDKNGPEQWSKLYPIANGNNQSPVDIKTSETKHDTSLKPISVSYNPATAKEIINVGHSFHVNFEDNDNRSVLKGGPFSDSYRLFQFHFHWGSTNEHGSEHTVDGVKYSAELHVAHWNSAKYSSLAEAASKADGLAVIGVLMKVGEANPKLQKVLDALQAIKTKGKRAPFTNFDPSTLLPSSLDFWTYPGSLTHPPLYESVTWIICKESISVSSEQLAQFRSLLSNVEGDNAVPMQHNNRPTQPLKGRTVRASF
Molecule,IC50 (hCA I [1]; [5]) [µM],IC50 (hCA II [2]; [6]) [nM],Ki (hCA II [2]; [7]) [nM],IC50 (hCA I [3]; [6]) [nM],Ki (hCA I [3]; [7]) [nM],IC50 (hCA II [4]; [5]) [nM],Inhibition of hydratase activity of hCA I (in words) (hCA I [1]),Hydratase IC50 hCA I (hCA I [1]; [5]),Inhibition of esterase activity of hCA II (in words) (hCA II [2]),Esterase IC50 hCA II (hCA II [2]; [6]),Ki hCA II (hCA II [2]; [7]),Inhibition of esterase activity of hCA I (in words) (hCA I [3]),Esterase IC50 hCA I (hCA I [3]; [6]),Ki hCA I (hCA I [3]; [7]),Inhibition of hydratase activity of hCA II (in words) (hCA II [4]),Hydratase IC50 hCA II (hCA II [4]; [5]),"hCA II inhibited stronger than hCA I (esterase activity) (hCA II [2]; esterase activity, hCA II versus hCA I) [fold]"
"Nc1nc2ccc(S(N)(=O)=O)cc2s1 [SMABT, 2-amino-6-sulfamoylbenzothiazole]",6.348 ± 0.012,322 ± 6,162 ± 10,567 ± 8,306 ± 4,3876 ± 14,,,,,,,,,,,
"NC(=S)Nc1ccc(S(N)(=O)=O)cc1 [TBS, 4-thioureidobenzenesulfonamide, reference compound]",7.846 ± 0.005,234 ± 6,114 ± 3,499 ± 10,268 ± 7,4334 ± 21,,,,,,,,,,,
"Nc1nc2ccc(S(N)(=O)=O)cc2s1.O=C(O)c1cccc(C(=O)O)n1 [Compound 1, (SMHABT)^+(HDPC)^−]",4.075 ± 0.018,133 ± 15,85 ± 19,258 ± 17,149 ± 17,1998 ± 9,,,,,,,,,,,
(SMHABT)[Fe(DPC)2].4H2O [Compound 2],2.533 ± 0.023,189 ± 5,101 ± 5,409 ± 21,192 ± 19,1010 ± 13,,,,,,,,,,,
"O=C(O)c1cccc(C(=O)O)n1 [Compound H2DPC, 2,6-pyridinedicarboxylic acid, reference compound]",,,,,,,have not inhibited,No inhibition,have not inhibited,No inhibition,No inhibition,have not inhibited,No inhibition,No inhibition,have not inhibited,No inhibition,
(SMHABT)2[Co(DPC)2].5H2O [Compound 3],1.601 ± 0.008,41 ± 3,13 ± 6,66 ± 4,28 ± 2,703 ± 14,,,,,,,,,,,1.5
(SMHABT)2[Ni(DPC)2].5H2O [Compound 4],0.397 ± 0.011,54 ± 1,21 ± 4,136 ± 3,43 ± 12,212 ± 6,,,,,,,,,,,
